Results on 46 compounds are retold here after ChEMBL document CHEMBL4325844, “Development of 2-amino-4-phenylthiazole analogues to disrupt myeloid differentiation factor 88 and prevent inflammatory responses in acute lung injury” (Eur J Med Chem, 2019).

Data set [1] has as its system Peritoneal macrophage. In words: Antiinflammatory activity in ICR mouse primary peritoneal macrophages assessed as inhibition of LPS-induced IL-6 production at 20 uM preincubated for 60 mins followed by LPS stimulation and measured after 24 hrs by ELISA relative to control. Type of data set: functional.
In data set [2] the test system is Peritoneal macrophage. In words: Antiinflammatory activity in ICR mouse primary peritoneal macrophages assessed as inhibition of LPS-induced TNFalpha production at 20 uM preincubated for 60 mins followed by LPS stimulation and measured after 24 hrs by ELISA relative to control. Format: functional. A general note: ELISA stands for enzyme-linked immunosorbent assay.

The nature of data set [3]: Cytotoxicity against ICR mouse primary peritoneal macrophages assessed as cell viability at 20 uM after 24 hrs by MTT assay relative to control. Type of data set: cell-based, Peritoneal macrophage. As to conditions: read-out: Activity. (In general: Tetrazolium dyes change colour on reduction, which living cells bring about.)
A short description of data set [4]: Cytotoxicity against rat NRK cells assessed as cell viability at 20 uM after 24 hrs by MTT assay relative to control. Type of data set: cell-based. As to conditions: read-out: Activity.
A short description of data set [5]: Cytotoxicity against rat H9c2 cells assessed as cell viability at 20 uM after 24 hrs by MTT assay relative to control. Type of data set: cell-based. The note with it: read-out: Activity.
For data set [6], the system named is Peritoneal macrophage. In words: Antiinflammatory activity in ICR mouse primary peritoneal macrophages assessed as inhibition of LPS-induced TNFalpha production preincubated for 2 hrs followed by LPS stimulation and measured after 22 hrs by ELISA. Format: functional, cell-based.
Data set [7] concerns Peritoneal macrophage. In words: Antiinflammatory activity in ICR mouse primary peritoneal macrophages assessed as inhibition of LPS-induced IL-6 production preincubated for 2 hrs followed by LPS stimulation and measured after 22 hrs by ELISA. Format: functional, cell-based.

The source made the active and inactive calls. The calls are words filed in the database; no cut-off is given here.

Turning to `O=C(CCN1CCN(S(=O)(=O)c2cc(Cl)cc(Cl)c2)CC1)Nc1nc(-c2ccccc2)cs1`, the values for the inhibition at 20 µM with Peritoneal macrophage [1] and in the data set with Peritoneal macrophage [2] were 55.6% and 49.1%, respectively.
`O=C(CCN1CCN(Cc2cccc([N+](=O)[O-])c2)CC1)Nc1nc2ccccc2s1`: the inhibition at 20 µM with Peritoneal macrophage [1] is 64.2%; in the data set on Peritoneal macrophage [2] it was 63.6%.
`O=C(CCN1CCN(CCc2ccccc2)CC1)Nc1nc(-c2ccccc2)cs1`: the inhibition at 20 µM in the data set on Peritoneal macrophage [1] was 27.4%; with Peritoneal macrophage [2] it was 9.1%.
As for `CN1CCN(CCC(=O)Nc2nc(-c3ccccc3)cs2)CC1`, the inhibition entry in the data set with Peritoneal macrophage [1] and in the data set with Peritoneal macrophage [2] was “inactive” each time.
For `CCOc1ccc(-c2csc(NC(=O)CCN3CCN(Cc4cccc([N+](=O)[O-])c4)CC3)n2)cc1`, the inhibition at 20 µM in the data set on Peritoneal macrophage [1] was 85.3%; in the data set on Peritoneal macrophage [2], 74.3%.
For `O=C(CCN1CCN(Cc2cccc([N+](=O)[O-])c2)CC1)Nc1nc(-c2cccc([N+](=O)[O-])c2)cs1` the same measures were 76.3% and 51.2%.
For `N#Cc1ccc(CN2CCN(CCC(=O)Nc3nc(-c4ccccc4)cs3)CC2)cc1` the same measures were 67.3% and 33.7%.
As to `COc1ccc(CN2CCN(CCC(=O)Nc3nc(-c4ccccc4)cs3)CC2)cc1`, the inhibition at 20 µM in the data set on Peritoneal macrophage [1] is 75.3%; in the data set with Peritoneal macrophage [2], 40.2%.
For `O=C(CCN1CCN(Cc2cccc([N+](=O)[O-])c2)CC1)Nc1nc(-c2ccco2)cs1` the same measures were 78.7% and 65.2%.
For `O=C(CCN1CCN(Cc2ccc3ccccc3c2)CC1)Nc1nc(-c2ccccc2)cs1`, in that order: 18.3% and 2.41%.
For `O=C(CCN1CCN(Cc2cccc([N+](=O)[O-])c2)CC1)Nc1nc(-c2ccc(Cl)cc2)cs1` the same measures were 77.6% and 58.3%.
`O=C(CCN1CCN(S(=O)(=O)c2ccc(C(F)(F)F)cc2)CC1)Nc1nc(-c2ccccc2)cs1`: in the data set on Peritoneal macrophage [1], the inhibition entry is “inactive”. Besides, the inhibition at 20 µM with Peritoneal macrophage [2] worked out at 2.54%.
For `N#Cc1ccc(-c2csc(NC(=O)CCN3CCN(Cc4cccc([N+](=O)[O-])c4)CC3)n2)cc1`, the inhibition at 20 µM with Peritoneal macrophage [1] stood at 50.6%; in the data set with Peritoneal macrophage [2], 49.7%.
Turning to `N#Cc1cccc(CN2CCN(CCC(=O)Nc3nc(-c4ccccc4)cs3)CC2)c1`, the inhibition at 20 µM in the data set on Peritoneal macrophage [1] stood at 78.3%; in the data set on Peritoneal macrophage [2], 52.3%.
For `O=C(CCN1CCN(Cc2ccc(Cl)cc2)CC1)Nc1nc(-c2ccccc2)cs1`, the inhibition at 20 µM in the data set on Peritoneal macrophage [1] was found to be 63.4%; with Peritoneal macrophage [2], 52.8%.
For `O=C(CCN1CCN(Cc2cccc(Cl)c2)CC1)Nc1nc(-c2ccccc2)cs1` the same measures were 74.5% and 48.8%.
On to `COc1ccc(S(=O)(=O)N2CCN(CCC(=O)Nc3nc(-c4ccccc4)cs3)CC2)cc1OC`, for which the inhibition at 20 µM with Peritoneal macrophage [1] came to 49.5%; in the data set on Peritoneal macrophage [2], 37.2%.
Consider `O=C(CCN1CCN(Cc2cccc([N+](=O)[O-])c2)CC1)Nc1nc(-c2cccc(Br)c2)cs1`, for which the inhibition at 20 µM in the data set with Peritoneal macrophage [1] is 73%; in the data set on Peritoneal macrophage [2], 52.5%.
As for `COc1ccc(S(=O)(=O)N2CCN(CCC(=O)Nc3nc(-c4ccccc4)cs3)CC2)cc1`, the inhibition at 20 µM amounted to 35.6% in the data set with Peritoneal macrophage [1] and 33.1% in the data set with Peritoneal macrophage [2].
Turning to `CC(C)(C)c1ccc(CN2CCN(CCC(=O)Nc3nc(-c4ccccc4)cs3)CC2)cc1`, the values for the inhibition at 20 µM in the data set on Peritoneal macrophage [1] and in the data set with Peritoneal macrophage [2] were 51.8% and 12%, respectively.
For `O=C(CCN1CCN(S(=O)(=O)c2ccc(Cl)cc2)CC1)Nc1nc(-c2ccccc2)cs1` the same measures were 70.3% and 37.6%.
For `Nc1cccc(CN2CCN(CCC(=O)Nc3nc(-c4ccccc4)cs3)CC2)c1` the same measures were 11.5% and 13.6%.
For `COC(=O)c1csc(NC(=O)CCN2CCN(Cc3cccc([N+](=O)[O-])c3)CC2)n1` the same measures were 56.3% and 31.7%.
Take `O=C(CCN1CCN(S(=O)(=O)c2ccccc2)CC1)Nc1nc(-c2ccccc2)cs1`: the inhibition at 20 µM is 29.9% in the data set on Peritoneal macrophage [1] and 17.6% in the data set on Peritoneal macrophage [2].
For `COc1cccc(CN2CCN(CCC(=O)Nc3nc(-c4ccccc4)cs3)CC2)c1` the same measures were 53.8% and 36.1%.
For `O=C(CCN1CCN(Cc2cccc([N+](=O)[O-])c2)CC1)Nc1nc(-c2ccc([N+](=O)[O-])cc2)cs1` the same measures were 58.8% and 32.4%.
For `O=C(CCN1CCN(Cc2ccc(C(F)(F)F)cc2)CC1)Nc1nc(-c2ccccc2)cs1`, in that order: 69% and 55.3%.
For the compound `O=C(CCN1CCN(Cc2cccc([N+](=O)[O-])c2)CC1)Nc1nc(-c2ccccc2)cs1`, the figures for the inhibition at 20 µM in the data set on Peritoneal macrophage [1] and in the data set with Peritoneal macrophage [2] were 81.5% and 64.2%, respectively.
As for `COc1cc(CN2CCN(CCC(=O)Nc3nc(-c4ccccc4)cs3)CC2)cc(OC)c1`, the inhibition at 20 µM is 57% with Peritoneal macrophage [1] and 34.2% with Peritoneal macrophage [2].
For `O=C(CCN1CCN(Cc2ccc(F)cc2)CC1)Nc1nc(-c2ccccc2)cs1` the same measures were 70.9% and 47.9%.
For `O=C(CCN1CCN(Cc2cccc(F)c2)CC1)Nc1nc(-c2ccccc2)cs1` the same measures were 68.5% and 40.5%.
Consider `Nc1ccc(CN2CCN(CCC(=O)Nc3nc(-c4ccccc4)cs3)CC2)cc1`, for which the figures for the inhibition at 20 µM with Peritoneal macrophage [1] and with Peritoneal macrophage [2] were 45.8% and 10.1%, respectively.
Consider `O=C(CCN1CCN(Cc2ccc([N+](=O)[O-])cc2)CC1)Nc1nc(-c2ccccc2)cs1`, for which the inhibition at 20 µM was 76.8% in the data set on Peritoneal macrophage [1] and 56.7% with Peritoneal macrophage [2].
For `O=C(CCN1CCN(Cc2cccc([N+](=O)[O-])c2)CC1)Nc1nc(-c2ccccc2Br)cs1`, the inhibition at 20 µM was found to be 86.9% with Peritoneal macrophage [1] and 83.2% with Peritoneal macrophage [2]. The viability at 24 h, 20 µM in data set [3], in data set [4] and in data set [5] was more than 80% each time. Also, the values for the half-inhibitory concentration (IC50) with Peritoneal macrophage [6] and in the data set with Peritoneal macrophage [7] were 5.15 µM and 4.65 µM, respectively. In addition, the inhibition entry in the data set with Peritoneal macrophage [6] and with Peritoneal macrophage [7] was “Dose-dependent effect” in each case.
Regarding `O=C(CCN1CCN(Cc2cccc([N+](=O)[O-])c2)CC1)Nc1nc(-c2ccc(F)cc2)cs1`, the values for the inhibition at 20 µM in the data set on Peritoneal macrophage [1] and with Peritoneal macrophage [2] were 86.4% and 65.6%, respectively.
For `O=C(CCN1CCN(Cc2cccc([N+](=O)[O-])c2)CC1)Nc1nc(C2CCC2)cs1`, in that order: 66.3% and 61.4%.
Consider `Cc1ccc(CN2CCN(CCC(=O)Nc3nc(-c4ccccc4)cs3)CC2)cc1`, for which the inhibition at 20 µM in the data set on Peritoneal macrophage [1] turned out to be 67.6%; in the data set with Peritoneal macrophage [2], 27.1%.
Regarding `O=C(CCN1CCN(Cc2cccc([N+](=O)[O-])c2)CC1)Nc1nc(-c2ccc(Br)cc2)cs1`, the inhibition at 20 µM in the data set on Peritoneal macrophage [1] worked out at 81%; with Peritoneal macrophage [2], 71.9%.
On to `O=C(CCN1CCN(Cc2cccc([N+](=O)[O-])c2)CC1)Nc1nc(-c2ccc(F)c(F)c2)cs1`, for which the inhibition at 20 µM in the data set on Peritoneal macrophage [1] amounted to 86.7%; with Peritoneal macrophage [2], 61.8%.
For `Cc1ccc(-c2csc(NC(=O)CCN3CCN(Cc4cccc([N+](=O)[O-])c4)CC3)n2)cc1` the same measures were 75.1% and 79%.
Consider `COc1ccc(-c2csc(NC(=O)CCN3CCN(Cc4cccc([N+](=O)[O-])c4)CC3)n2)cc1OC`, for which the inhibition at 20 µM in the data set on Peritoneal macrophage [1] was 90.2%; with Peritoneal macrophage [2], 87.6%. For the same compound, the viability at 24 h, 20 µM in data set [3], in data set [4] and in data set [5] was more than 80% in each case. Moreover, the IC50 in the data set with Peritoneal macrophage [6] was 1.77 µM; in the data set with Peritoneal macrophage [7] it was 3.15 µM. Further, the inhibition result in the data set with Peritoneal macrophage [6] and in the data set with Peritoneal macrophage [7] was “Dose-dependent effect” throughout.
Take `COc1ccc(-c2csc(NC(=O)CCN3CCN(Cc4cccc([N+](=O)[O-])c4)CC3)n2)cc1`: the results for the inhibition at 20 µM in the data set on Peritoneal macrophage [1] and with Peritoneal macrophage [2] were 82% and 73.8%, respectively.
In the case of `O=C(CCN1CCN(S(=O)(=O)c2ccc([N+](=O)[O-])cc2)CC1)Nc1nc(-c2ccccc2)cs1`, the inhibition at 20 µM in the data set on Peritoneal macrophage [1] is 40.6%; with Peritoneal macrophage [2], 38.6%.
In the case of `O=C(CCN1CCN(Cc2cccc([N+](=O)[O-])c2)CC1)Nc1nc(-c2ccc(C3CCCCC3)cc2)cs1`, the inhibition at 20 µM in the data set on Peritoneal macrophage [1] stood at 28.5%; in the data set on Peritoneal macrophage [2] it was 19.8%.
For `O=C(CCN1CCN(S(=O)(=O)c2cccc(Cl)c2)CC1)Nc1nc(-c2ccccc2)cs1`, in that order: 61.1% and 32.8%.
For `O=C(CCN1CCN(Cc2c(Cl)cccc2Cl)CC1)Nc1nc(-c2ccccc2)cs1`, in that order: 73.8% and 37.1%.

For orientation: inhibition means the drop in the measured response relative to a control, in per cent. As a reminder, the IC50 is the concentration that gives 50% inhibition.
